Measured values published in article PMC6264499, “In silico identification and experimental validation of hits active against KPC-2 β-lactamase” (PLoS ONE, 2018).

Columns and labels:
recombinant KPC-2 [1] = target: T1, recombinant KPC-2 (Klebsiella pneumoniae, UniProt Q9F663); experiment: KPC-2 inhibition assay, CENTA as reporter substrate; format: biochemical; conditions: for IC50: read-out: IC50
T1 construct: made in house; host or cells: E. coli BL21 (DE3)
Procedure: (§1) The blaKPC-2 gene was kindly provided by Prof. Sergei Vakulenko (University of Notre Dame du Lac, Indiana, USA) and cloned as already reported and transformed into competent E.coli BL21 (DE3) cells for protein expression. 50 mL of Tryptic Soy Broth (TSB) (50 mg/L kanamycin) were inoculated with fresh colonies and grown at 37°C. 4 mL of the overnight culture was used to inoculate 1.3 L of TSB (50 mg/L kanamycin) grown at 37°C with shaking to an optical density of 0.5 measured at 600 nm. Then expression of recombinant bla gene was induced by adding 1.0 mM IPTG (isopropyl-D-thiogalactopyranoside) and the cells were again allowed to grow at 20°C overnight. Bacteria were harvested by centrifugation at 4000 rpm for 20 minutes. The pelleted cells were resuspended in Tris-HCl 50 mM pH 7.4–7.5. Periplasmatic proteins were extracted as reported in the pET System Manual (TB055 10th Edition Rev. B 0403) and subsequently dialyzed in sodium acetate buffer (50 mM, pH 5.0). The protein was conveniently purified in a single step using a Macro-Prep High S resin and eluted using sodium acetate 50 mM pH 5.0 and a sodium chloride (NaCl) linear gradient from 100 to 500 mM. The purified protein was dialyzed overnight in sodium phosphate buffer 50 mM, pH 7.0 [31, 32].
(§2) The hydrolytic activity of KPC-2 was measured using the β-lactam substrates CENTA (100 uM, KM 70 uM) or nitrocefin (114 uM, KM 36 μM) in reaction buffer consisting of 50 mM of PB at pH 7.0 at 25°C with 0.01% v/v Triton X-100 to avoid compound aggregation and promiscuous inhibition.[33] Reactions were monitored using a Beckmann DU640 spectrophotometer at […] for CENTA and 480 nm wavelength for nitrocefin [34]. The test compounds were synthesized as described below or purchased from Enamine, TimTec, Vitas-M, ChemBridge, Otava, Life Chemicals or Apollo Scientific and assayed without further purification. Compounds were dissolved in dimethyl sulfoxide (DMSO) to a concentration of 25 mM and stored at -20°C. The highest concentration at which the compounds were tested was up to 1 mM (depending on their solubility). All experiments were performed in duplicate and the error never exceeded 5%. The reaction was typically initiated by adding KPC-2 to the reaction buffer last. To control for incubation effects, protein was added to the reaction buffer first, and the reaction was initiated by the addition of reporter substrate after 10 minutes of enzyme-compound incubation.
Fig 4 Inhibitory activity of compounds selected from virtual screening. ^[a]Assays were performed in duplicate (errors were less than 5%) with CENTA as reporter substrate (100 μM, km 70 μM). Kinetic were monitored at 25° by following the absorbance variation at λ = 405 nm. ^[b] If no IC50 has been measured, percent inhibition at the highest tested concentration is given in parentheses. For example, > 0.50 (26%) implies that the highest concentration tested was 0.50 mM; at this concentration, the enzyme was inhibited by 26%. Therefore, IC50> 0.50 mM. When % Inhibition was below 10% No Inibition (NI) is reported. ^[c]Assays were run after 10’ incubation of the inhibitor with KPC-2. Reaction was started by the addition of CENTA. […] 0 (11) | 32a: IC50 mM ^[a,b]: 1.24
Competitive inhibition mechanism and the Ki for compound 9a was determined by Lineweaver–Burk (LB) and Dixon plots.

Kpn 53A8 = experiment: MIC of meropenem, alone or 1:1 with compounds, KPC-2 clinical strain; format: cell-based, K. pneumoniae; conditions: strain Kpn 53A8
Procedure: The antimicrobial activity of the best hits 9a and 11a and their derivatives was studied in bacterial cell cultures to investigate their ability to cross the outer membrane reaching the periplasmic space, where KPC-2 is secreted and confined in Gram negative bacteria. Compounds were tested for synergy with the β-lactam antibiotic meropenem against four K. pneumoniae clinical strains, isolated from different patients at the Hospital Universitario Son Espases, Palma de Mallorca, Spain. […] The three additional strains harbored the blaKPC-2 gene and were resistant to meropenem (Table 2). […] However, against strain Kpn 53A8 the MIC value was lowered by a factor of two when meropenem was combined with compounds 32a, 1b, 2b, 5b and 6b while in combination with compound 11a the MIC value was reduced by 4 fold.

recombinant KPC-2 [2] = target: T1, recombinant KPC-2; experiment: KPC-2 inhibition assay, nitrocefin as reporter substrate; format: biochemical; conditions: for IC50: nitrocefin 114.28 μM (Km 36 μM), 25°, 485 nm
Procedure: as §1, §2
Kinetic were monitored at 25° by following the absorbance variation at λ = 485 nm. ^[b] If no IC50 has been measured, percent inhibition at the highest tested concentration is given in parentheses. […] When % Inhibition was below 10% No Inhibition (NI) is reported. TEXT PRINTED IN THE PICTURE: 11a: IC50 mM [a,b]: 0.036 | 1b: IC50 mM [a,b]: > 0.2 (25) | 2b: IC50 mM [a,b]: >0.6 (23) | 3b: IC50 mM [a,b]: Not tested not soluble | 4b: IC50 mM [a,b]: > 0.2 (16) | 5b: IC50 mM [a,b]: > 0.2 (13) | 6b: IC50 mM [a,b]: NI at 0.2 | 7b: IC50 mM [a,b]: >1.0 (30) | 8b: IC50 mM [a,b]: > 1.0 (37) | 9b: IC50 mM [a,b]: NI at 0.5 | 10b: IC50 mM [a,b]: NI at 0.5 | 11b: IC50 mM [a,b]: > 1.0 (37) | 12b: IC50 mM [a,b]: NI at 0.5 | 13b: IC50 mM [a,b]: NI at 0.5 | 14b: IC50 mM [a,b]: >500 (20) DOUBTS OF THE COPYIST ABOUT THIS PICTURE: column head: raised note printed very small, read as [a,b]

[3] = read-out: percent inhibition at the highest tested concentration
[4] = CENTA 100 μM (km 70 μM), 25°, 405 nm, no pre-incubation
[5] = CENTA 100 μM, after 10' incubation of the inhibitor with KPC-2

T1 sequence (Q9F663 25-293, looked up): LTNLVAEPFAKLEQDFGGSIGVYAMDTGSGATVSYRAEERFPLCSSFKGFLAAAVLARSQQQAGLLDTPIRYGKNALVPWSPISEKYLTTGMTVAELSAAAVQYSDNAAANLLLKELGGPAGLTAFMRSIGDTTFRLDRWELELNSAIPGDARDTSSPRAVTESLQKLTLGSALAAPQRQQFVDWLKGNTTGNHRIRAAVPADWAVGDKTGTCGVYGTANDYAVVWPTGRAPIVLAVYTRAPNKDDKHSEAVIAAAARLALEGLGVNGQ

In the case of CCS(=O)(=O)Nc1cc(-c2ccncc2)n[nH]1 [22a], the inhibition at 1000 µM (recombinant KPC-2 [1]; [3]) is reported as under 10%.
For COc1ccc2nc(C(=O)O)[nH]c2c1 [19a], the IC50 (recombinant KPC-2 [1]; [4]) was 880 µM and the “fold less active than 9a” value (recombinant KPC-2 [1]; IC50 vs KPC-2 relative to compound 9a) was 6 fold.
For O=C(Nc1cccc(-c2nn[nH]n2)c1)c1cccs1 [10a], the IC50 (recombinant KPC-2 [1]; [5]) was 70 µM.
Work on Cc1nn(CC(=O)O)c2[nH]c(=O)cc(C(F)F)c12 [16a] yielded an IC50 (recombinant KPC-2 [1]; [4]) of over 1000 µM and an inhibition at 1000 µM (recombinant KPC-2 [1]; [3]) of 17%.
Cc1n[nH]c(C)c1/C=C/c1cc(C(=O)O)ncn1 [24a] showed an IC50 (recombinant KPC-2 [1]; [4]) of over 100 µM and an inhibition at 100 µM (recombinant KPC-2 [1]; [3]) of 41%.
O=S(=O)(Nc1cccc(-c2nnn[nH]2)c1)c1cccc2cccnc12 [5b, N-(3-(1H-tetrazol-5-yl)phenyl)quinoline-8-sulfonamide] was tested, and the “fold reduction of meropenem MIC in combination with compound” value (shortened to “fold reduction of meropenem MIC”) (Kpn 53A8) was “two”, the IC50 (recombinant KPC-2 [2]) was over 200 µM and the inhibition at 200 µM (recombinant KPC-2 [2]; [3]) was 13%.
In the case of O=S(=O)(/C=C/c1cccc(Br)c1)Nc1cccc(-c2nnn[nH]2)c1 [7b], the IC50 (recombinant KPC-2 [2]) is reported as over 1000 µM and the inhibition at 1000 µM (recombinant KPC-2 [2]; [3]) is reported as 30%.
O=C(NC1CC1)c1ccc(-c2nnn[nH]2)cc1 [18a] showed an IC50 (recombinant KPC-2 [1]; [4]) of over 1000 µM and an inhibition at 1000 µM (recombinant KPC-2 [1]; [3]) of 18%.
In the case of COc1cc(OC)c2cc(C(=O)O)nnc2c1 [28a], the IC50 (recombinant KPC-2 [1]; [4]) is reported as over 500 µM and the inhibition at 500 µM (recombinant KPC-2 [1]; [3]) is reported as 14%.
CC(C)S(=O)(=O)Nc1ccc2c(c1)C(=O)N(C)CCO2 [15a] showed an IC50 (recombinant KPC-2 [1]; [4]) of over 660 µM and an inhibition at 660 µM (recombinant KPC-2 [1]; [3]) of 38%.
For CCOc1ccc(NS(C)(=O)=O)cc1 [7a], the IC50 (recombinant KPC-2 [1]; [4]) was over 1000 µM and the inhibition at 1000 µM (recombinant KPC-2 [1]; [3]) was 12%.
Compound NC(=O)c1ccc(-c2nnn[nH]2)cc1 [13a] has an inhibition at 250 µM (recombinant KPC-2 [1]; [3]) of under 10%.
For COc1ccc(-c2cn[nH]c2C(=O)O)c(OC)c1 [2a], the IC50 (recombinant KPC-2 [1]; [4]) was over 500 µM and the inhibition at 500 µM (recombinant KPC-2 [1]; [3]) was 38%.
CC(=O)Nc1ccc(S(=O)(=O)Nc2cccc(-c3nnn[nH]3)c2)cc1 [4b, N-(4-(N-(3-(1H-tetrazol-5-yl)phenyl)sulfamoyl)phenyl)acetamide] gave an IC50 (recombinant KPC-2 [2]) of over 200 µM and an inhibition at 200 µM (recombinant KPC-2 [2]; [3]) of 16%.
O=c1c2ccc(S(=O)(=O)Nc3cccc(-c4nnn[nH]4)c3)cc2nc2n1CCCCC2 [12b] gave an inhibition at 500 µM (recombinant KPC-2 [2]; [3]) of under 10%.
O=S(=O)(Nc1cccc(-c2nnn[nH]2)c1)c1ccc(Cl)cc1 [6b, N-(3-(1H-tetrazol-5-yl)phenyl)-4-chlorobenzenesulfonamide] was tested, and the “fold reduction of meropenem MIC” value (Kpn 53A8) was “two” and the inhibition at 200 µM (recombinant KPC-2 [2]; [3]) was under 10%.
COCc1nc2cc(NS(C)(=O)=O)ccc2o1 [21a] showed an IC50 (recombinant KPC-2 [1]; [4]) of over 1000 µM and an inhibition at 1000 µM (recombinant KPC-2 [1]; [3]) of 12%.
Work on NS(=O)(=O)c1ccc(Cl)c(S(=O)(=O)Nc2cccc(-c3nnn[nH]3)c2)c1 [13b] yielded an inhibition at 500 µM (recombinant KPC-2 [2]; [3]) of under 10%.
Work on CC(=O)Nc1cccc(-c2nnn[nH]2)c1 [8a] yielded an IC50 (recombinant KPC-2 [1]; [4]) of over 500 µM and an inhibition at 500 µM (recombinant KPC-2 [1]; [3]) of 37%.
O=S(=O)(Nc1cccc(-c2nnn[nH]2)c1)c1cccc(F)c1 [1b, N-(3-(1H-tetrazol-5-yl)phenyl)-3-fluorobenzenesulfonamide] was tested, and the “fold reduction of meropenem MIC” value (Kpn 53A8) was “two”, the IC50 (recombinant KPC-2 [2]) was over 200 µM and the inhibition at 200 µM (recombinant KPC-2 [2]; [3]) was 25%.
For CCOc1cc(C(=O)O)nc2ccc(OC)cc12 [20a], the IC50 (recombinant KPC-2 [1]; [5]) was over 500 µM and the inhibition at 500 µM (recombinant KPC-2 [1]; [3]) was 28%.
Compound COc1ccc2[nH]nc(C(=O)O)c2c1 [1a] has an IC50 (recombinant KPC-2 [1]; [4]) of over 330 µM and an inhibition at 330 µM (recombinant KPC-2 [1]; [3]) of 30%.
